ChEMBL document CHEMBL1201861, “Genomics of Drug Sensitity in Cancer screening data, Wellcome Trust Sanger Institute”

Legend:
Test in all cases: cells
DBTRG-05MG = format: functional, cell-based, Homo sapiens; conditions: Homo sapiens, DBTRG-05MG;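 also: cell viability assay measuring growth inhibition of human DBTRG-05MG cells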
Description: SANGER: Inhibition of human DBTRG-05MG cell growth in a cell viability assay.

DoTc2-4510 = format: functional, cell-based, Homo sapiens; conditions: Homo sapiens, DoTc2-4510
EB-3 = format: functional, cell-based, Homo sapiens; conditions: Homo sapiens, EB-3;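 also: human EB-3 cells, growth inhibition read out via a cell viability assay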
Description: SANGER: Inhibition of human EB-3 cell growth in a cell viability assay.

EGI-1 = format: functional, cell-based, Homo sapiens; conditions: Homo sapiens, EGI-1;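 also: cell viability readout used to gauge growth inhibition of EGI-1 cells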
Description: SANGER: Inhibition of human EGI-1 cell growth in a cell viability assay.

G-361 = format: functional, cell-based, Homo sapiens; conditions: Homo sapiens, G-361
GDM-1 = format: functional, cell-based, Homo sapiens; conditions: Homo sapiens, GDM-1;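 also: cell viability readout used to measure growth inhibition of human GDM-1 cells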
Description: SANGER: Inhibition of human GDM-1 cell growth in a cell viability assay.

HCC1569 = format: functional, cell-based, Homo sapiens; conditions: Homo sapiens, HCC1569;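 also: growth inhibition of human HCC1569 cells, read out with a cell viability assay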
Description: SANGER: Inhibition of human HCC1569 cell growth in a cell viability assay.

HT-1080 = format: functional, cell-based, Homo sapiens; conditions: Homo sapiens, HT-1080
Description: SANGER: Inhibition of human HT-1080 cell growth in a cell viability assay.

IGR-1 = format: functional, cell-based, Homo sapiens; conditions: Homo sapiens, IGR-1;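 also: growth inhibition of human IGR-1 cells, read out with a cell viability assay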
Description: SANGER: Inhibition of human IGR-1 cell growth in a cell viability assay.

IGROV-1 = format: functional, cell-based, Homo sapiens; conditions: Homo sapiens, IGROV-1;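 also: reduction of IGROV-1 cell growth, read out with a viability assay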
Description: SANGER: Inhibition of human IGROV-1 cell growth in a cell viability assay.

KMS-12-PE = format: functional, cell-based, Homo sapiens; conditions: Homo sapiens, KMS-12-PE;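 also: growth inhibition of human KMS-12-PE cells, measured with a cell viability assay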
Description: SANGER: Inhibition of human KMS-12-PE cell growth in a cell viability assay.

KYSE-410 = format: functional, cell-based, Homo sapiens; conditions: Homo sapiens, KYSE-410;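 also: growth inhibition of KYSE-410 cells, measured through a cell viability readout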
Description: SANGER: Inhibition of human KYSE-410 cell growth in a cell viability assay.

KYSE-510 = format: functional, cell-based, Homo sapiens; conditions: Homo sapiens, KYSE-510;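 also: cell viability readout used to measure how strongly growth of the cell line is suppressed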
Description: SANGER: Inhibition of human KYSE-510 cell growth in a cell viability assay.

KYSE-520 cell line = format: functional, cell-based, Homo sapiens; conditions: Homo sapiens, KYSE-520;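 also: growth inhibition of human KYSE-520 cells, read out with a viability assay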
Description: SANGER: Inhibition of human KYSE-520 cell growth in a cell viability assay.

LOUCY = format: functional, cell-based, Homo sapiens; conditions: Homo sapiens, LOUCY;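 also: growth inhibition of human LOUCY cells, read out with a cell viability assay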
Description: SANGER: Inhibition of human LOUCY cell growth in a cell viability assay.

LU-165 = format: functional, cell-based, Homo sapiens; conditions: Homo sapiens, LU-165
Description: SANGER: Inhibition of human LU-165 cell growth in a cell viability assay.

LU-99A = format: functional, cell-based, Homo sapiens; conditions: Homo sapiens, LU-99A;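 also: growth inhibition of LU-99A cells, read out with a cell viability assay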
Description: SANGER: Inhibition of human LU-99A cell growth in a cell viability assay.

LoVo = format: functional, cell-based, Homo sapiens; conditions: Homo sapiens, LoVo;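 also: growth inhibition of human LoVo cells, read out with a cell viability assay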
Description: SANGER: Inhibition of human LoVo cell growth in a cell viability assay.

M14 = format: functional, cell-based, Homo sapiens; conditions: Homo sapiens, M14;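 also: growth inhibition of M14 cells, read out with a cell viability assay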
Description: SANGER: Inhibition of human M14 cell growth in a cell viability assay.

MDA-MB-157 = format: functional, cell-based, Homo sapiens; conditions: Homo sapiens, MDA-MB-157
Description: SANGER: Inhibition of human MDA-MB-157 cell growth in a cell viability assay.

MKN-28 = format: functional, cell-based, Homo sapiens; conditions: Homo sapiens, MKN-28;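 also: cell viability assay read-out, IC50 reflects suppression of growth of human MKN-28 cells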
Description: SANGER: Inhibition of human MKN28 cell growth in a cell viability assay.

NCI-H1963 = format: functional, cell-based, Homo sapiens; conditions: Homo sapiens, NCI-H1963;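 also: cell growth inhibition of the human line, determined with a cell viability assay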
Description: SANGER: Inhibition of human NCI-H1963 cell growth in a cell viability assay.

NCI-H2030 = format: functional, cell-based, Homo sapiens; conditions: Homo sapiens, NCI-H2030;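 also: growth inhibition of human NCI-H2030 cells, read out by a cell viability assay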
Description: SANGER: Inhibition of human NCI-H2030 cell growth in a cell viability assay.

NCI-H2052 = format: functional, cell-based, Homo sapiens; conditions: Homo sapiens, NCI-H2052;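 also: growth inhibition of NCI-H2052 cells, read out with a cell viability assay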
Description: SANGER: Inhibition of human NCI-H2052 cell growth in a cell viability assay.

NCI-H2141 = format: functional, cell-based, Homo sapiens; conditions: Homo sapiens, NCI-H2141;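 also: growth inhibition of human NCI-H2141 cells, read out with a cell viability assay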
Description: SANGER: Inhibition of human NCI-H2141 cell growth in a cell viability assay.

NCI-H2170 = format: functional, cell-based, Homo sapiens; conditions: Homo sapiens, NCI-H2170;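 also: cell viability assay measuring growth inhibition of human NCI-H2170 cancer cells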
Description: SANGER: Inhibition of human NCI-H2170 cell growth in a cell viability assay.

NCI-H596 = format: functional, cell-based, Homo sapiens; conditions: Homo sapiens, NCI-H596;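 also: growth inhibition of NCI-H596 cells, read out with a cell viability assay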
Description: SANGER: Inhibition of human NCI-H596 cell growth in a cell viability assay.

NCI-H748 = format: functional, cell-based, Homo sapiens; conditions: Homo sapiens, NCI-H748;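 also: growth inhibition of NCI-H748 cells, measured by a cell viability assay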
Description: SANGER: Inhibition of human NCI-H748 cell growth in a cell viability assay.

NUGC-3 = format: functional, cell-based, Homo sapiens; conditions: Homo sapiens, NUGC-3;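 also: growth inhibition of human NUGC-3 cells, read out with a cell viability assay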
Description: SANGER: Inhibition of human NUGC-3 cell growth in a cell viability assay.

PA-1 = format: functional, cell-based, Homo sapiens; conditions: Homo sapiens, PA-1;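 also: IC50 for suppression of PA-1 cell proliferation, determined with a cell viability read-out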
Description: SANGER: Inhibition of human PA-1 cell growth in a cell viability assay.

Panc1005 = format: functional, cell-based, Homo sapiens; conditions: Homo sapiens, Panc1005;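 also: growth inhibition of human PANC-10-05 cells, measured by a cell viability assay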
Description: SANGER: Inhibition of human PANC-10-05 cell growth in a cell viability assay.

RPMI-7951 = format: functional, cell-based, Homo sapiens; conditions: Homo sapiens, RPMI-7951
Description: SANGER: Inhibition of human RPMI-7951 cell growth in a cell viability assay.

SCLC-21H = format: functional, cell-based, Homo sapiens; conditions: Homo sapiens, SCLC-21H;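 also: growth inhibition of cultured human SCLC-21H cells, read out with a cell viability assay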
Description: SANGER: Inhibition of human SCLC-21H cell growth in a cell viability assay.

SK-MEL3 = format: functional, cell-based, Homo sapiens, SK-MEL-3; conditions: Homo sapiens, SK-MEL3;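 also: growth inhibition of human SK-MEL-3 cells, read out with a cell viability assay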
Description: SANGER: Inhibition of human SK-MEL-3 cell growth in a cell viability assay.

SK-N-AS = format: functional, cell-based, Homo sapiens; conditions: Homo sapiens, SK-N-AS;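 also: growth inhibition of human SK-N-AS cells, measured with a cell viability assay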
Description: SANGER: Inhibition of human SK-N-AS cell growth in a cell viability assay.

SNU-423 = format: functional, cell-based, Homo sapiens; conditions: Homo sapiens, SNU-423
Description: SANGER: Inhibition of human SNU-423 cell growth in a cell viability assay.

SUP-T1 = format: functional, cell-based, Homo sapiens; conditions: Homo sapiens, SUP-T1;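 also: growth inhibition of human SUP-T1 cells, read out as cell viability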
Description: SANGER: Inhibition of human SUP-T1 cell growth in a cell viability assay.

SW1417 = format: functional, cell-based, Homo sapiens; conditions: Homo sapiens, SW1417;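 also: growth inhibition of human SW1417 cells, read out with a cell viability assay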
Description: SANGER: Inhibition of human SW1417 cell growth in a cell viability assay.

SAOS-2 = format: functional, cell-based, Homo sapiens; conditions: Homo sapiens, SAOS-2;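 also: growth inhibition of human Saos-2 cells determined by a cell viability assay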
Description: SANGER: Inhibition of human Saos-2 cell growth in a cell viability assay.

A2058 = format: functional, cell-based, Homo sapiens; conditions: Homo sapiens, A2058;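 also: reduction of A2058 cell growth, read out with a viability assay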
Description: SANGER: Inhibition of human A2058 cell growth in a cell viability assay.

A-427 = format: functional, cell-based, Homo sapiens; conditions: Homo sapiens, A-427;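 also: growth inhibition of human A-427 cells, read out by a cell viability assay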
Description: SANGER: Inhibition of human A427 cell growth in a cell viability assay.

AU565 = format: functional, cell-based, Homo sapiens; conditions: Homo sapiens, AU565;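 also: cell viability assay measuring growth inhibition of human AU565 cells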
Description: SANGER: Inhibition of human AU565 cell growth in a cell viability assay.

CAL-148 = format: functional, cell-based, Homo sapiens; conditions: Homo sapiens, CAL-148
Description: SANGER: Inhibition of human CAL-148 cell growth in a cell viability assay.

CAL-54 = format: functional, cell-based, Homo sapiens; conditions: Homo sapiens, CAL-54;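 also: growth inhibition of CAL-54 cells, read out by a viability measurement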
Description: SANGER: Inhibition of human CAL-54 cell growth in a cell viability assay.

U-118-MG = format: functional, cell-based, Homo sapiens; conditions: Homo sapiens, U-118-MG
Description: SANGER: Inhibition of human U-118-MG cell growth in a cell viability assay.

WM-115 = format: functional, cell-based, Homo sapiens; conditions: Homo sapiens, WM-115
Description: SANGER: Inhibition of human WM-115 cell growth in a cell viability assay.

COLO-679 = format: functional, cell-based, Homo sapiens; conditions: Homo sapiens, COLO-679
Description: SANGER: Inhibition of human COLO-679 cell growth in a cell viability assay.

N#Cc1c(O)c2c(-c3ccc(-c4ccccc4O)cc3)csc2[nH]c1=O
IC50 (DBTRG-05MG): > 1020 nM
IC50 (DoTc2-4510): > 1020 nM
IC50 (EB-3): 293 nM
IC50 (EGI-1): > 1020 nM
IC50 (G-361): 88.1 nM
IC50 (GDM-1): 25.5 nM
IC50 (HCC1569): > 1020 nM
IC50 (HT-1080): > 1020 nM
IC50 (IGR-1): > 1020 nM
IC50 (IGROV-1): > 1020 nM
IC50 (KMS-12-PE): 419 nM
IC50 (KYSE-410): > 1020 nM
IC50 (KYSE-510): > 1020 nM
IC50 (KYSE-520 cell line): > 1020 nM
IC50 (LOUCY): 96.4 nM
IC50 (LU-165): > 1020 nM
IC50 (LU-99A): > 1020 nM
IC50 (LoVo): > 1020 nM
IC50 (M14): > 1020 nM
IC50 (MDA-MB-157): 824 nM
IC50 (MKN-28): > 1020 nM
IC50 (NCI-H1963): > 1020 nM
IC50 (NCI-H2030): > 1020 nM
IC50 (NCI-H2052): > 1020 nM
IC50 (NCI-H2141): 633 nM
IC50 (NCI-H2170): > 1020 nM
IC50 (NCI-H596): > 1020 nM
IC50 (NCI-H748): > 1020 nM
IC50 (NUGC-3): > 1020 nM
IC50 (PA-1): > 1020 nM
IC50 (Panc1005): > 1020 nM
IC50 (RPMI-7951): > 1020 nM
IC50 (SCLC-21H): > 1020 nM
IC50 (SK-MEL3): > 1020 nM
IC50 (SK-N-AS): > 1020 nM
IC50 (SNU-423): > 1020 nM
IC50 (SUP-T1): 265 nM
IC50 (SW1417): > 1020 nM
IC50 (SAOS-2): > 1020 nM
IC50 (A2058): > 1020 nM
IC50 (A-427): > 1020 nM
IC50 (AU565): > 1020 nM
IC50 (CAL-148): 223 nM
IC50 (CAL-54): > 1020 nM
IC50 (U-118-MG): > 1020 nM
IC50 (WM-115): > 1020 nM
IC50 (COLO-679): > 1020 nM

C=C(c1ccc(C(=O)O)cc1)c1cc2c(cc1C)C(C)(C)CCC2(C)C [BEXAROTENE]
IC50 (DBTRG-05MG): > 8000 nM
IC50 (DoTc2-4510): > 8000 nM
IC50 (EB-3): > 8000 nM
IC50 (EGI-1): > 8000 nM
IC50 (G-361): > 8000 nM
IC50 (GDM-1): > 8000 nM
IC50 (HCC1569): > 8000 nM
IC50 (HT-1080): > 8000 nM
IC50 (IGR-1): > 8000 nM
IC50 (IGROV-1): > 8000 nM
IC50 (KMS-12-PE): > 8000 nM
IC50 (KYSE-410): > 8000 nM
IC50 (KYSE-510): > 8000 nM
IC50 (KYSE-520 cell line): > 8000 nM
IC50 (LOUCY): > 8000 nM
IC50 (LU-165): > 8000 nM
IC50 (LU-99A): > 8000 nM
IC50 (LoVo): 5920 nM
IC50 (M14): > 8000 nM
IC50 (MDA-MB-157): > 8000 nM
IC50 (MKN-28): > 8000 nM
IC50 (NCI-H1963): > 8000 nM
IC50 (NCI-H2030): > 8000 nM
IC50 (NCI-H2052): > 8000 nM
IC50 (NCI-H2141): > 8000 nM
IC50 (NCI-H2170): > 8000 nM
IC50 (NCI-H596): > 8000 nM
IC50 (NCI-H748): > 8000 nM
IC50 (NUGC-3): > 8000 nM
IC50 (PA-1): > 8000 nM
IC50 (Panc1005): > 8000 nM
IC50 (RPMI-7951): > 8000 nM
IC50 (SCLC-21H): > 8000 nM
IC50 (SK-MEL3): > 8000 nM
IC50 (SK-N-AS): > 8000 nM
IC50 (SNU-423): > 8000 nM
IC50 (SUP-T1): > 8000 nM
IC50 (SW1417): > 8000 nM
IC50 (SAOS-2): > 8000 nM
IC50 (A2058): > 8000 nM
IC50 (A-427): 5970 nM
IC50 (AU565): > 8000 nM
IC50 (CAL-148): > 8000 nM
IC50 (CAL-54): > 8000 nM
IC50 (U-118-MG): > 8000 nM
IC50 (WM-115): > 8000 nM
IC50 (COLO-679): > 8000 nM

CCC/C=C/C=C/C(=O)O[C@H]1/C(=C/C(=O)OC)C[C@H]2C[C@H]([C@@H](C)O)OC(=O)C[C@H](O)C[C@@H]3C[C@H](OC(C)=O)C(C)(C)[C@](O)(C[C@@H]4C/C(=C/C(=O)OC)C[C@H](/C=C/C(C)(C)[C@]1(O)O2)O4)O3 [BRYOSTATIN 1]
IC50 (DBTRG-05MG): > 8 nM
IC50 (DoTc2-4510): > 8 nM
IC50 (EB-3): > 8 nM
IC50 (EGI-1): > 8 nM
IC50 (G-361): > 8 nM
IC50 (GDM-1): > 8 nM
IC50 (HCC1569): > 8 nM
IC50 (HT-1080): > 8 nM
IC50 (IGR-1): > 8 nM
IC50 (IGROV-1): > 8 nM
IC50 (KMS-12-PE): > 8 nM
IC50 (KYSE-410): > 8 nM
IC50 (KYSE-510): > 8 nM
IC50 (KYSE-520 cell line): > 8 nM
IC50 (LOUCY): > 8 nM
IC50 (LU-165): > 8 nM
IC50 (LU-99A): > 8 nM
IC50 (LoVo): > 8 nM
IC50 (M14): > 8 nM
IC50 (MDA-MB-157): > 8 nM
IC50 (MKN-28): > 8 nM
IC50 (NCI-H1963): > 8 nM
IC50 (NCI-H2030): > 8 nM
IC50 (NCI-H2052): > 8 nM
IC50 (NCI-H2141): > 8 nM
IC50 (NCI-H2170): > 8 nM
IC50 (NCI-H596): > 8 nM
IC50 (NCI-H748): > 8 nM
IC50 (NUGC-3): > 8 nM
IC50 (PA-1): > 8 nM
IC50 (Panc1005): > 8 nM
IC50 (RPMI-7951): > 8 nM
IC50 (SCLC-21H): > 8 nM
IC50 (SK-MEL3): > 8 nM
IC50 (SK-N-AS): > 8 nM
IC50 (SNU-423): > 8 nM
IC50 (SUP-T1): > 8 nM
IC50 (SW1417): > 8 nM
IC50 (SAOS-2): > 8 nM
IC50 (A2058): > 8 nM
IC50 (A-427): > 8 nM
IC50 (AU565): > 8 nM
IC50 (CAL-148): > 8 nM
IC50 (CAL-54): > 8 nM
IC50 (U-118-MG): > 8 nM
IC50 (WM-115): > 8 nM
IC50 (COLO-679): > 8 nM
